Experiment in all cases: Protein phosphatase inhibition assay, FDP substrate, FMP fluorescence
What all share (assay type): biochemical

The target of experiment [1] is T1, PTP1B (Homo sapiens, UniProt P18031).
T1 sequence (P18031 1-435): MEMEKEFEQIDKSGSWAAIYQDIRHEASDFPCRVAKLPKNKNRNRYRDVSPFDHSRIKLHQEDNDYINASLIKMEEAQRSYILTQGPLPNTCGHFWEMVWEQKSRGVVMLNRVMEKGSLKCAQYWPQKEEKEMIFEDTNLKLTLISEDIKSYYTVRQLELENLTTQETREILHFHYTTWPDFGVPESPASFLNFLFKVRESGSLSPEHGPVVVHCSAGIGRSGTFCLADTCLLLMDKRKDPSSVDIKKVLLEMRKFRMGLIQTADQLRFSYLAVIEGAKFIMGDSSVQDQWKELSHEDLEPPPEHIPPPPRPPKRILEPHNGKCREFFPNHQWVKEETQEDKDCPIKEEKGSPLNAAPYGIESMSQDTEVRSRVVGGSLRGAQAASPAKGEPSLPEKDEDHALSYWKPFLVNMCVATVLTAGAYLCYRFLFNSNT
Here is the method: (§1) In order to examine the ability of the rhodanine derivatives, that is, Compounds 1˜174, to inhibit protein phosphatases, they were assayed for IC50 values through the following experiments.
(§2) For the experiments, FDP (fluorescein diphosphate) was used as a substrate for genetically recombinant enzymes to measure the fluorescence of FMP (fluorescein monophosphate). […]

The target of experiment [2] is PP1. As to conditions: genetically recombinant enzyme, fluorescence of FMP. Here is the method:
as §1, §2

Experiment [3] concerns the target T2, Cdc25C (Homo sapiens, UniProt P30307).
T2 sequence (P30307 1-473): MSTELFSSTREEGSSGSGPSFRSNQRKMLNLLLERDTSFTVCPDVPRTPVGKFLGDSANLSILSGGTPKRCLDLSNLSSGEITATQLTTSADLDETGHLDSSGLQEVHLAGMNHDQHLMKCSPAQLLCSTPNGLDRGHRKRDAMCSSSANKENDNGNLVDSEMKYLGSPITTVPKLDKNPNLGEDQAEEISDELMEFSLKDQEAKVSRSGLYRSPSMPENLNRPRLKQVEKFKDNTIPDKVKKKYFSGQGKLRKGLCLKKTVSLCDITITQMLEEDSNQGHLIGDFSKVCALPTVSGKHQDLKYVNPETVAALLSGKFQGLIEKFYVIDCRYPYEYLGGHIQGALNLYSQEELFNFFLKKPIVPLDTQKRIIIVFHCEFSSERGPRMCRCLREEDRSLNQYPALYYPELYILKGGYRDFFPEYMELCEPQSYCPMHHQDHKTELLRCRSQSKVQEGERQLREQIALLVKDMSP
The settings on record: genetically recombinant enzyme, fluorescence of FMP. As to the method:
as §1, §2

The target in experiment [4] is pp2A. The settings on record: genetically recombinant enzyme, fluorescence of FMP. Here is the method:
as §1, §2

Experiment [5] concerns the target T3, CD45 (Homo sapiens, UniProt P08575).
T3 sequence (P08575 26-1306): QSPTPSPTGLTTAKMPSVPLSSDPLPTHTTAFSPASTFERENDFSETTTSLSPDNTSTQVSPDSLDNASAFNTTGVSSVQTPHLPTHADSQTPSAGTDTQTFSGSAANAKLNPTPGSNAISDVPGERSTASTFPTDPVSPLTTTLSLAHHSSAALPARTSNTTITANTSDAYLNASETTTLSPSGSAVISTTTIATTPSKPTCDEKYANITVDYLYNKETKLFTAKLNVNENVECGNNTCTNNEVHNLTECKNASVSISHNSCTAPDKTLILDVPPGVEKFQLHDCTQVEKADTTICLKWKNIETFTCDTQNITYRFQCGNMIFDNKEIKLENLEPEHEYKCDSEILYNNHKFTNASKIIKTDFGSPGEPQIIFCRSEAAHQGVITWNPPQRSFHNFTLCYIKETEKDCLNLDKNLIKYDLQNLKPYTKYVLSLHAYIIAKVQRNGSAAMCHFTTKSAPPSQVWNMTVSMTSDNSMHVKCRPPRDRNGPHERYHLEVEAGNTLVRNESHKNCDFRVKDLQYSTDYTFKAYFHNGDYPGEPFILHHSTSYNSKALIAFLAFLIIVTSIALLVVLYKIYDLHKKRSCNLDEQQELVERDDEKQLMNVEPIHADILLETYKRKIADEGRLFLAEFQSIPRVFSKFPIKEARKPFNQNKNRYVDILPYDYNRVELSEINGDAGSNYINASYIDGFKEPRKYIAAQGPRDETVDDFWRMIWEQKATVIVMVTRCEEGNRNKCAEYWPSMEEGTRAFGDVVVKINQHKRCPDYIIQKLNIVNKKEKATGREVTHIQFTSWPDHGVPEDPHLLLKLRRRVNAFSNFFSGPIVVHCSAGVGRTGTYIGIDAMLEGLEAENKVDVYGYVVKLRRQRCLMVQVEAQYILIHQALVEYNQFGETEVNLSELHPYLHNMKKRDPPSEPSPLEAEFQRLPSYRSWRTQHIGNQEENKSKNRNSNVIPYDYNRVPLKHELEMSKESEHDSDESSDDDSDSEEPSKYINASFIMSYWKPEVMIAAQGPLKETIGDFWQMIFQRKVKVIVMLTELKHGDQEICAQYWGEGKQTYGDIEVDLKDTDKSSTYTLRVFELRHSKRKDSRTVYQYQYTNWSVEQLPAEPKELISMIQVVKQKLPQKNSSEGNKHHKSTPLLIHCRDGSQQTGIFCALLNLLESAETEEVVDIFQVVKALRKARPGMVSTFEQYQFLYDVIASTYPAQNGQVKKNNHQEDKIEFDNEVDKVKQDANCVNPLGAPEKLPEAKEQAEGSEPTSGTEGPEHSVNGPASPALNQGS
As to conditions: genetically recombinant enzyme, fluorescence of FMP. Here is the method:
as §1, §2

In experiment [6] the target is VHR (Homo sapiens, UniProt P51452). As to conditions: genetically recombinant enzyme, fluorescence of FMP. Here is the method: as §1, §2
Chain of VHR (P51452 whole entry): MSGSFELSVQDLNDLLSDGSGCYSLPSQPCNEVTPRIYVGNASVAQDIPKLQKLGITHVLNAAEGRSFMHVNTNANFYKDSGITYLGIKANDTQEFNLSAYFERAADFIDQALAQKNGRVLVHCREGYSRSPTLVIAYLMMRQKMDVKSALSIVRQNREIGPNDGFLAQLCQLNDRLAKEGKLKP
Experiment [7] addresses LAR (Homo sapiens, UniProt P10586). As to conditions: genetically recombinant enzyme, fluorescence of FMP. Here is the method:
as §1, §2

The target of experiment [8] is Prl-3 (Homo sapiens, UniProt O75365). The settings on record: genetically recombinant enzyme, fluorescence of FMP. From the text:
For the experiments, FDP (fluorescein diphosphate) was used as a substrate for genetically recombinant enzymes to measure the fluorescence of FMP (fluorescein monophosphate).

Experiment [9] has as its target T4, Cdc25A (Homo sapiens, UniProt P30304).
T4 sequence (P30304 1-524): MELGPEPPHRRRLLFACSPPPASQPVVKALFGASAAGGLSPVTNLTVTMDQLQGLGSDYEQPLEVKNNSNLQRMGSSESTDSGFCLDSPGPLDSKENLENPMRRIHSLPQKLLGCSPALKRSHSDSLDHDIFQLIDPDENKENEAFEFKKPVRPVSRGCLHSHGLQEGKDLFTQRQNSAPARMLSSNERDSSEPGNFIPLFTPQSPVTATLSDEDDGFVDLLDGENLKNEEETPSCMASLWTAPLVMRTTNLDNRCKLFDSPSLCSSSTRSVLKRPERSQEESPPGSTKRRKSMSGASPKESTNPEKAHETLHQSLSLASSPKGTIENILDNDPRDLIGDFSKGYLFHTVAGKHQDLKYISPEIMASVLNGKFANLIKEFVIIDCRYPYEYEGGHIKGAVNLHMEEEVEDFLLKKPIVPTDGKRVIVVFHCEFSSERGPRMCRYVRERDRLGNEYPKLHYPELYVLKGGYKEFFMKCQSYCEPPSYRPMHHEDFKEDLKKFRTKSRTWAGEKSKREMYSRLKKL
As to conditions: genetically recombinant enzyme, fluorescence of FMP. Here is the method: as §1, §2

Experiment [10] deals with T5, Cdc25B (Homo sapiens, UniProt P30305).
T5 sequence (P30305 1-580): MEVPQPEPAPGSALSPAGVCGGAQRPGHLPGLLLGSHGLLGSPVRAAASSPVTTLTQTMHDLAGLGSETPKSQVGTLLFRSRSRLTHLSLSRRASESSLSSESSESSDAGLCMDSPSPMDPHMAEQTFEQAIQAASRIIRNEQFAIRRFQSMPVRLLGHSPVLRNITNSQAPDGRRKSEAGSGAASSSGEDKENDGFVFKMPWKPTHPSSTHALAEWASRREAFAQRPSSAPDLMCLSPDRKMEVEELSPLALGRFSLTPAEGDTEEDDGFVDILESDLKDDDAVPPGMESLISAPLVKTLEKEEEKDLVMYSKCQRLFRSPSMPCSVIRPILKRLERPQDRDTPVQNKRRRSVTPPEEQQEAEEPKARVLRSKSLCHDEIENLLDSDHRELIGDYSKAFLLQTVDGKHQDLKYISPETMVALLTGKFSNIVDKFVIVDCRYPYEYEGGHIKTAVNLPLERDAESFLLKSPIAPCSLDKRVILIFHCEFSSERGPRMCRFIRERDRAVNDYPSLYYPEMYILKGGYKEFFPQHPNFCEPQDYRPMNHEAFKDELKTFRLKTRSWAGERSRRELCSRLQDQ
The settings on record: genetically recombinant enzyme, fluorescence of FMP. As to the method: as §1, §2

The target of experiment [11] is Yop (Yersinia enterocolitica, UniProt P15273). The settings on record: genetically recombinant enzyme, fluorescence of FMP. As to the method: as §1, §2
Chain of Yop (P15273 whole entry): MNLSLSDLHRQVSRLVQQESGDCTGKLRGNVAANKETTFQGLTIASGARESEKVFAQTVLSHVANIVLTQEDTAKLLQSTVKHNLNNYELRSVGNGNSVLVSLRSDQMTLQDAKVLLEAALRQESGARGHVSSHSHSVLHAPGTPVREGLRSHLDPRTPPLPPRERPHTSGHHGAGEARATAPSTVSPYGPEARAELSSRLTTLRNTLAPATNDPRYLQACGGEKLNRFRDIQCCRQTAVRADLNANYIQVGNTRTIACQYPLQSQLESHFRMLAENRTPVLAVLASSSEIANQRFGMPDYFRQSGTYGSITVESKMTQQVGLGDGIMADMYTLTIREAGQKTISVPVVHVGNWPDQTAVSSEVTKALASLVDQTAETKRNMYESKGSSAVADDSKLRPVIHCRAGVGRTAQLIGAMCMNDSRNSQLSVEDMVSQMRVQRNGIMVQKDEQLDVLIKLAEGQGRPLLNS
Where [12] appears, read: genetically recombinant enzyme, FDP substrate, fluorescence of FMP, read-out: IC50 PTP1B.

The structures appear in SMILES notation. Where two headings read alike, the source gives them in different places. Where only a bound is given, the exact number is not on record here.

Chain of Prl-3 (O75365 whole entry): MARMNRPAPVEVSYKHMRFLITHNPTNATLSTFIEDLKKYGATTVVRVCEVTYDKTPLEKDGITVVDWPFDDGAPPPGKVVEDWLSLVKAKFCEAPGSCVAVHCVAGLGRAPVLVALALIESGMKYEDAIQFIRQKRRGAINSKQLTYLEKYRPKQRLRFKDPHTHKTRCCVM
Chain of LAR (P10586 30-1907): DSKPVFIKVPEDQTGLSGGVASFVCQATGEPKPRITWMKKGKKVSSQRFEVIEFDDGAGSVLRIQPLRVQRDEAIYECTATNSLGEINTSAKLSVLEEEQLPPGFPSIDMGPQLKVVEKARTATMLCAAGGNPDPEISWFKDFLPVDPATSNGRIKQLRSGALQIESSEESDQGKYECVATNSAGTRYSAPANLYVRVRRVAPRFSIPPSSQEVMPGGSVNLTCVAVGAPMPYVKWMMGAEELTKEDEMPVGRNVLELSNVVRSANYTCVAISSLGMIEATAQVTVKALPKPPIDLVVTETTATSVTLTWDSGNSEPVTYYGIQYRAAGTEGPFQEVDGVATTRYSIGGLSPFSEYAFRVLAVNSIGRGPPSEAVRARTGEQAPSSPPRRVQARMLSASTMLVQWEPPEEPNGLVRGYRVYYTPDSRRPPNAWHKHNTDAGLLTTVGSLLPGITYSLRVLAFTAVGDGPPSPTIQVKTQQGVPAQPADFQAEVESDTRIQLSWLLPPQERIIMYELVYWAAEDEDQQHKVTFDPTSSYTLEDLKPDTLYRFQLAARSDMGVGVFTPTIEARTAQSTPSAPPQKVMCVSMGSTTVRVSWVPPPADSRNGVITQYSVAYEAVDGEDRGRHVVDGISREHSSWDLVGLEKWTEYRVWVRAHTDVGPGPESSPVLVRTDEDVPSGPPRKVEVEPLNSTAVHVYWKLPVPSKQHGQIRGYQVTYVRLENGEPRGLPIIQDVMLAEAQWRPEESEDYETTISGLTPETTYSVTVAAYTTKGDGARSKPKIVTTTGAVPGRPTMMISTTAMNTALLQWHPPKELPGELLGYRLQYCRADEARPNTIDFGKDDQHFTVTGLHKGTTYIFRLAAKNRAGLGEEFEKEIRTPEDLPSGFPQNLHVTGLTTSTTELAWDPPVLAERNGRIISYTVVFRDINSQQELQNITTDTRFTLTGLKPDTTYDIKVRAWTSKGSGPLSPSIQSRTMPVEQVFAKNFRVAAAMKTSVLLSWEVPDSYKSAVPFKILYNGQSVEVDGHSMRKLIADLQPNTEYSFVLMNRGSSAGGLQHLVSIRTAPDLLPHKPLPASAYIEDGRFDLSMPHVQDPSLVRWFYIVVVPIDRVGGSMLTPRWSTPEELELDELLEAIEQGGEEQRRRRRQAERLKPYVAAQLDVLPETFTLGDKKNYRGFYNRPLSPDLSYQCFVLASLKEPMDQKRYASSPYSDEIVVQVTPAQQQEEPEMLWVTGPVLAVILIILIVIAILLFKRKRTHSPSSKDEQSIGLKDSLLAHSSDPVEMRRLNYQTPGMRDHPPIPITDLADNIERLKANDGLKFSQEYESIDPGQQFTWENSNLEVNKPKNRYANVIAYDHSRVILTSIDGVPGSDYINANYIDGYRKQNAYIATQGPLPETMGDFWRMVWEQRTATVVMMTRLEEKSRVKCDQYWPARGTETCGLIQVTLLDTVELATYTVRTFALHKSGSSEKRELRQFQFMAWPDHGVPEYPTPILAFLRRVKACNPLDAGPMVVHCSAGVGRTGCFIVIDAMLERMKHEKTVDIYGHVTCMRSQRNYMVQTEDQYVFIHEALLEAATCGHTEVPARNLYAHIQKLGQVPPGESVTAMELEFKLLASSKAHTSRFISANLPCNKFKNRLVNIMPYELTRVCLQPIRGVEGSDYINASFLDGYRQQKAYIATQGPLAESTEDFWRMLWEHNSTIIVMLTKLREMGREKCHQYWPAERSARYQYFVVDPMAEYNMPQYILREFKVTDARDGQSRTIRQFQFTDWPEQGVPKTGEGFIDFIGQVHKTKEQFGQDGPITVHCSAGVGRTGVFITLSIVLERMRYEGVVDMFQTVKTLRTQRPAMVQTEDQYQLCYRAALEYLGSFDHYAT

One may read the IC50 as the concentration that gives 50% inhibition. For `O=C1NC(=S)S/C1=C\c1cc(Br)ccc1OCc1ccccc1` [Compound 1, 5-(2-benzyloxy-5-bromobenzylidene)-2-thioxo-thiazolidin-4-one], in experiment [1], the IC50 is over 20 µM.

In the case of `O=C1NC(=S)S/C1=C\c1cc2ccccc2cc1OCc1ccccc1` [Compound 2, 5-(3-benzyloxy-naphthalen-2-ylmethylene)-2-thioxo-thiazolidin-4-one], the IC50 in experiment [2], in experiment [1] (setting [12]) and in experiment [3] was over 20 µM each time.

As to `O=C1NC(=S)S/C1=C\c1cc(Br)ccc1OCCc1ccccc1` [Compound 4, 5-(5-bromo-2-phenethyloxy-benzylidene)-2-thioxo-thiazolidin-4-one], the concentration for half-maximal inhibition (IC50) in [4] is over 20 µM; in experiment [2], over 20 µM; in [1] (setting [12]) it was 10 µM.

Regarding `O=C1NC(=S)S/C1=C\c1cc(Br)ccc1OCc1ccc(-c2ccccc2)cc1` [Compound 18, 5-[2-(biphenyl-ylmethoxy)-5-bromo-benzylidene]-2-thioxo-thiazolidin-4-one], the concentration for half-maximal inhibition (IC50) in [1] (setting [12]) is 2.1 µM; in experiment [5], over 20 µM.

`O=C1NC(=S)S/C1=C\c1cc(Br)ccc1OCc1cccc(C(F)(F)F)c1` [Compound 19, 5-[5-bromo-2-(3-trifluoromethyl-benzyloxy)-benzylidene]-2-thioxo-thiazolidin-4-one]: the half-inhibitory concentration (IC50) is 5 µM in experiment [1] (setting [12]), over 20 µM in [6], over 20 µM in experiment [5] and over 20 µM in experiment [3].

Regarding `CCN(CC)c1ccc(/C=C2\SC(=S)NC2=O)c(OCc2ccccc2)c1` [Compound 32, 5-(2-benzyloxy-4-diethylamino-benzylidene)-2-thioxo-thiazolidin-4-one], the half-maximal inhibitory concentration (IC50) in experiment [7] is over 20 µM; in experiment [1] (setting [12]), over 20 µM; in experiment [6], over 20 µM; in [3] it was over 20 µM; in experiment [8], 1.34 µM.

`O=C1NC(=S)S/C1=C\c1cc(Br)ccc1OCCn1c2ccccc2c2ccccc21` [Compound 141, 5-[5-bromo-2-(2-carbazol-9-yl-ethoxy)-benzylidene]-2-thioxo-thiazolidin-4-one]: the concentration for half-maximal inhibition (IC50) is over 20 µM in [9], 47 µM in experiment [1] (setting [12]), 2.7 µM in [10] and 1.6 µM in experiment [8].

Turning to `O=C1NC(=S)S/C1=C\c1cc(Br)ccc1OCCN1c2ccccc2Cc2ccccc21` [Compound 142, 5-2-[2-(9H-acridin-10-yl)-ethoxy]-5-bromo-benzylidene-2-thioxo-thiazolidin-4-one], the half-maximal inhibitory concentration (IC50) in experiment [1] (setting [12]) is 13 µM; in experiment [10] it was 4.4 µM; in experiment [3], over 20 µM; in experiment [8], 3.6 µM.

As for `CN(CCOc1ccc(Br)cc1/C=C1\SC(=S)NC1=O)C(=O)OC(C)(C)C` [Compound 157, 2-[4-bromo-2-(4-oxo-2-thioxo-thiazolidin-5-ylidenemethyl)-phenoxy]-ethyl-methyl-carbamic acid t-butyl ester], the 50% inhibitory concentration (IC50) in experiment [11] is over 20 µM; in [7] it was over 20 µM; in experiment [1] (setting [12]) it was over 20 µM; in [8] it was 6.2 µM.

These data come from patent US8148541B2, “Rhodanine derivatives, a process for the preparation thereof and pharmaceutical composition containing the same” (Korea Research Institute of Bioscience and Biotechnology, priority 2006, dated 2012).
